From patent US9162979B2, “1,5-Diary1-2-alkylpyrrole-3-substituted nitro esters, selective COX-2 inhibitors and nitric oxide donors” (ROTTAPHARM BIOTECH S.R.L., priority 2010, dated 2015)

Key:
[1] = tested on: isolated rings of thoracic aorta; experiment: Evaluation of release of NO: vasorelaxing activity on endothelium-denuded aortic rings contracted with KCl; set-up: species or system rat; key to NO release properties Emax (maximum vasorelaxing effect) / NO release properties pIC50 (vasorelaxing potency): S.E: Scarcely Effective: it is not possible to detect NO release comparable to the other compounds mentioned here; conditions: for IC50 / Emax: Rattus norvegicus; for IC50 / NO release properties pIC50 (vasorelaxing potency): concentration reducing contractile tone induced by 20 mM KCl by half; for IC50: read-out: NO release properties pIC50 (vasorelaxing potency) (converted); for Emax / NO release properties Emax (maximum vasorelaxing effect): relative to contractile tone induced by 20 mM KCl, 1 nM-10 μM; for Emax: read-out: NO release properties Emax (maximum vasorelaxing effect)
Experimental: The activity of the compounds was evaluated on isolated rings of thoracic aorta of normotensive male Wistar rats (250-350 g). After light anaesthesia with ether, the rats were sacrificed by cervical dislocation and exsanguination. The aortas were immediately excised, extraneous tissues were removed and the endothelial layer was removed by gently rubbing the surface with a hypodermic needle. Rings of aorta with a width of 5 mm were suspended, with a preload of 2 g, in 20-ml organ baths, containing a solution of “Tyrode” (composition of the saline solution in mM: NaCl 136.8; KCl 2.95; CaCl2 1.80; MgSO4 1.05; NaH2PO4 0.41; NaHCO3 11.9; glucose 5.5), thermostatically controlled at 37° C. and kept in an atmosphere of O2 (95%) and CO2 (5%). […] were recorded by means of an isometric transducer (FTO3 Erba), connected to a microdynamometer (Buxco Electronics).
60 minutes after preparation, removal of the endothelium was confirmed by acetylcholine (ACH) (10 μM) treatment of the vascular rings pre-contracted with KCl (20 mM). Relaxation of less than 10% of the contraction induced by KCl was considered as representative of acceptable removal of the endothelial layer, whereas organs displaying relaxation ≧10% were discarded. 40 minutes after confirmation of complete removal of the endothelium, the aortas were contracted by treatment with a single dose of KCl (20 mM) and after the contraction reached a stable plateau, increasing cumulative concentrations (with progressive increments of 3 times) of the test compounds (1 nM-10 μM) were added. It was found from preliminary experiments that the contraction induced by KCl (20 mM) remained stable in a tonic state for at least 40 minutes. The same experiments were performed in the presence of a well-known inhibitor of guanylate cyclase: ODQ 1 μM, which was incubated in aorta preparations after confirmation of removal of the endothelium.
Analysis of the results. The vasorelaxing activity was evaluated as a percentage (%) relative to the contractile tone induced by 20 mM KCl. The pharmacodynamic efficacy parameter (Emax) corresponds to the maximum vasorelaxing effect induced by the molecule tested, expressed as percentage relative to the contractile tone induced by 20 mM KCl. When the limit concentration of 10 μM (the highest concentration administered) of the test compounds has not reached the maximum effect, the efficacy parameter (Emax) corresponds to the vasorelaxing effect induced by the limit concentration (expressed as percentage relative to the contractile tone induced by 20 mM KCl). The pharmacodynamic parameter of potency of the compounds was expressed as pIC50 calculated as the negative logarithm of the molar concentration of test compound that reduces the contractile tone induced by 20 mM KCl by half. […] The parameters of efficacy and potency were expressed as mean±standard error, for 5-10 experiments. The experimental data were analysed by the program GraphPad Prism 3.0.

[2] = molecular target: COX-2 (Mus musculus (Mouse), UniProt Q05769); experiment: Evaluation of COX-2 activity: PGE2 production in LPS-stimulated J774 cells; assay type: cell-based, murine; conditions: J774 cells stimulated 24 hours with LPS 10 μg/mL; PGE2 by radio-immunological assay; read-out: Cyclooxygenase inhibition COX-2 IC50
Experimental: The murine monocyte/macrophage cell line J774 is grown in Dulbecco's modified Eagle's medium (DMEM), enriched with glutamine (2 mM), HEPES (25 mM), penicillin (100 u/mL), streptomycin (100 μg/mL), 10% of fetal bovine serum (FBS) and 1.2% of sodium pyruvate. […] Just before the experiments, the culture medium is replaced with fresh medium without FBS to avoid interference during the radio-immunological phase and the cells are stimulated as described below.
The supernatants are collected for evaluating, by means of radio-immunological assays, the amount of PGE2 produced.
In each group of experiments, wells were used in triplicate for the different treatment conditions. […] The data were evaluated using the sigmoidal dose-response equation (variable slope) (GraphPad software). IC50 and the 95% precision intervals were calculated with the program GraphPad Instat (GraphPad software).

Chain of COX-2 (Q05769 18-604): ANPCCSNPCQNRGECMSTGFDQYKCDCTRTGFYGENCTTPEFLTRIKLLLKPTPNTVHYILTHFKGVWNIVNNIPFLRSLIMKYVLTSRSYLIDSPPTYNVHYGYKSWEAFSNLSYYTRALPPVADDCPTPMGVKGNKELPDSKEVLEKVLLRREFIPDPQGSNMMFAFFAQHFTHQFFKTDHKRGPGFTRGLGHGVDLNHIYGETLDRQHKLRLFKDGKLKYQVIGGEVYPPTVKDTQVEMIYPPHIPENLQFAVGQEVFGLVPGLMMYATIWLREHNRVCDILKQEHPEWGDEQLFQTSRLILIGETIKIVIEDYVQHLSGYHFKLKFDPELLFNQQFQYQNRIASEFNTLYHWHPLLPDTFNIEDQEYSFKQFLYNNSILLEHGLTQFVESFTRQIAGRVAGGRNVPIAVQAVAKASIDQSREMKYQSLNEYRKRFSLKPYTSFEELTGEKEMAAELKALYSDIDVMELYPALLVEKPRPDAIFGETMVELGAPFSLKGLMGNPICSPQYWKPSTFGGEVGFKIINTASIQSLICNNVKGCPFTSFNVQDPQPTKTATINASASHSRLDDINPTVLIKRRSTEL

## Cc1c(CC(=O)OCC(CO[N+](=O)[O-])O[N+](=O)[O-])cc(-c2ccc(S(C)(=O)=O)cc2)n1-c1ccccc1 (racemic) [Example 15, (R,S)-2,3-bis(Nitrooxy)propyl-2-[1-phenyl-2-methyl-5-(4-methylsulphonylphenyl)-1H-pyrrol-3-yl]acetate]
[1]
  IC50: 1120 nM
  Emax: 57 ± 6%

## Cc1c(CC(=O)NC(CCO)C(=O)O)cc(-c2ccc(S(C)(=O)=O)cc2)n1-c1ccc(F)cc1 (racemic) [Example 32-II, (R,S)-4-(Hydroxy)-2-[[1-(4-fluorophenyl)-2-methyl-5-(4-methylsulphonylphenyl)-1H-pyrrol-3-yl]acetamido]butanoic Acid]
[2]
  IC50: 86 nM

## Cc1c(CC(=O)NC(CCO[N+](=O)[O-])C(=O)O)cc(-c2ccc(S(C)(=O)=O)cc2)n1-c1cccc(F)c1 (racemic) [Example 33, (R,S)-4-(Nitroxy)-2-[[1-(3-fluorophenyl)-2-methyl-5-(4-methylsulphonylphenyl)-1H-pyrrol-3-yl]acetamido]butanoic Acid]
[1]
  Emax: 23 ± 2%

## Cc1c(CC(=O)NC(CO[N+](=O)[O-])C(=O)O)cc(-c2ccc(S(C)(=O)=O)cc2)n1-c1ccc(F)cc1 (stereo in doubt) [Example 29, (S)-3-(Nitroxy)-2-[[1-(4-fluorophenyl)-2-methyl-5-(4-methylsulphonylphenyl)-1H-pyrrol-3-yl]acetamido]propanoic Acid]
[2]
  IC50: 310 nM
[1]
  NO release properties pIC50 (vasorelaxing potency): S.E
  NO release properties Emax (maximum vasorelaxing effect): S.E

## Cc1c(CC(=O)NC(CO)C(=O)O)cc(-c2ccc(S(C)(=O)=O)cc2)n1-c1ccc(F)cc1 (stereo in doubt) [Example 29-II, (S)-3-(Hydroxy)-2-[[1-(4-fluorophenyl)-2-methyl-5-(4-methylsulphonylphenyl)-1H-pyrrol-3-yl]acetamido]propanoic Acid]
[2]
  IC50: 160 nM

## Cc1c(CC(=O)NC(CO[N+](=O)[O-])C(=O)O)cc(-c2ccc(S(C)(=O)=O)cc2)n1-c1cccc(F)c1 (stereo in doubt) [Example 30, (S)-3-(Nitroxy)-2-[1-(3-fluorophenyl)-2-methyl-5-(4-methylsulphonylphenyl)-1H-pyrrol-3-yl]acetamido]propanoic Acid]
[2]
  IC50: 140 nM
[1]
  NO release properties pIC50 (vasorelaxing potency): S.E
  NO release properties Emax (maximum vasorelaxing effect): S.E

## Cc1c(CC(=O)NC(CO)C(=O)O)cc(-c2ccc(S(C)(=O)=O)cc2)n1-c1cccc(F)c1 (stereo in doubt) [Example 30-II, (S)-3-(Hydroxy)-2-[1-(3-fluorophenyl)-2-methyl-5-(4-methylsulphonylphenyl)-1H-pyrrol-3-yl]acetamido]propanoic Acid]
[2]
  IC50: 57 nM

## Cc1c(CC(=O)OCCO[N+](=O)[O-])cc(-c2ccc(S(C)(=O)=O)cc2)n1-c1ccccc1 [Example 1, 2-(Nitrooxy)ethyl-2-[1-phenyl-2-methyl-5-(4-methylsulphonylphenyl)-1H-pyrrol-3-yl]acetate]
[2]
  IC50: 43 nM
[1]
  IC50: 1410 nM
  Emax: 66 ± 3%

## Cc1c(CC(=O)OCCO)cc(-c2ccc(S(C)(=O)=O)cc2)n1-c1ccccc1 [Example 1-II]
[2]
  IC50: 27 nM

## CSc1ccc(-n2c(-c3ccc(S(C)(=O)=O)cc3)cc(CC(=O)OCCO[N+](=O)[O-])c2C)cc1 [Example 5, 2-(Nitroxy)ethyl-[1-(4-methylthiophenyl)-2-methyl-5-(4-methylsulphonylphenyl)-1H-pyrrol-3-yl]-acetate]
[1]
  IC50: 457 nM
  Emax: 64.9 ± 1.4%

## CSc1ccc(-n2c(-c3ccc(S(C)(=O)=O)cc3)cc(CC(=O)OCCO)c2C)cc1 [Example 5-II, 2-Hydroxyethyl-[1-(4-methylthiophenyl)-2-methyl-5-(4-methylsulphonylphenyl)-1H-pyrrol-3-yl]-acetate]
[2]
  IC50: 85 nM

## Cc1c(CC(=O)OCCCO)cc(-c2ccc(S(C)(=O)=O)cc2)n1-c1cccc(F)c1 [Example 8-II, 3-Hydroxypropyl-[1-(3-fluorophenyl)-2-methyl-5-(4-methylsulphonylphenyl)-1H-pyrrol-3-yl]-acetate]
[2]
  IC50: 23 nM

## COc1ccc(-n2c(-c3ccc(S(C)(=O)=O)cc3)cc(CC(=O)OCCCO)c2C)cc1 [Example 9-II, 3-Hydroxypropyl-[1-(4-methoxyphenyl)-2-methyl-5-(4-methylsulphonylphenyl)-1H-pyrrol-3-yl]-acetate]
[2]
  IC50: 700 nM

## CSc1ccc(-n2c(-c3ccc(S(C)(=O)=O)cc3)cc(CC(=O)OCCCO[N+](=O)[O-])c2C)cc1 [Example 10, 3-(Nitroxy)propyl-[1-(4-methylthiophenyl)-2-methyl-5-(4-methylsulphonylphenyl)-1H-pyrrol-3-yl]-acetate]
[2]
  IC50: 27 nM
[1]
  Emax: 41 ± 8%

## CSc1ccc(-n2c(-c3ccc(S(C)(=O)=O)cc3)cc(CC(=O)OCCCO)c2C)cc1 [Example 10-II, 3-(Hydroxy)propyl-[1-(4-methylthiophenyl)-2-methyl-5-(4-methylsulphonylphenyl)-1H-pyrrol-3-yl]-acetate]
[2]
  IC50: 260 nM

## Cc1c(CC(=O)OCCCCO)cc(-c2ccc(S(C)(=O)=O)cc2)n1-c1cccc(F)c1 [Example 12-II, 4-(hydroxy)butyl-[1-(3-fluorophenyl)-2-methyl-5-(4-methylsulphonylphenyl)-1H-pyrrol-3-yl]-acetate]
[2]
  IC50: 110 nM

## CSc1ccc(-n2c(-c3ccc(S(C)(=O)=O)cc3)cc(CC(=O)OCCCCO[N+](=O)[O-])c2C)cc1 [Example 14, 4-(Nitrooxy)butyl-2-[1-(4-thiomethylphenyl)-2-methyl-5-(4-methylsulphonylphenyl)-1H-pyrrol-3-yl]acetate]
[2]
  IC50: 220 nM
[1]; ODQ 1 μM, guanylate cyclase inhibitor
  vasorelaxing effect in the presence of ODQ: not fully antagonized by ODQ
[1]
  IC50: 5010 nM
  Emax: 55 ± 15%

## CSc1ccc(-n2c(-c3ccc(S(C)(=O)=O)cc3)cc(CC(=O)OCCCCO)c2C)cc1 [Example 14-II, 4-(Hydroxy)butyl-2-[1-(4-thiomethylphenyl)-2-methyl-5-(4-methylsulphonylphenyl)-1H-pyrrol-3-yl]acetate]
[2]
  IC50: 55 nM

## Cc1c(CC(=O)NCCO)cc(-c2ccc(S(C)(=O)=O)cc2)n1-c1cccc(F)c1 [Example 24-II, N-[(2-hydroxy)ethyl]-2-[1-(3-fluorophenyl)-2-methyl-5-(4-methylsulphonylphenyl)-1H-pyrrol-3-yl]acetamide]
[2]
  IC50: 290 nM

## Cc1c(CCOCCO[N+](=O)[O-])cc(-c2ccc(S(C)(=O)=O)cc2)n1-c1ccccc1 [Example 36, 2-[2-[1-Phenyl-2-methyl-5-(4-methylsulphonylphenyl)-1H-pyrrol-3-yl]ethoxy]ethyl Nitrate]
[2]
  IC50: 17 nM
[1]
  IC50: 6030 nM
  Emax: 65%

## Cc1c(CCOCCCO[N+](=O)[O-])cc(-c2ccc(S(C)(=O)=O)cc2)n1-c1ccccc1 [Example 40, 3-[2-[2-(1-Phenyl-2-methyl-5-(4-methylsulphonylphenyl)-1H-pyrrol-3-yl)ethoxy]propyl Nitrate]
[2]
  IC50: 15 nM
[1]
  Emax: 48.2 ± 0.5%

## Cc1c(CCOCCCO)cc(-c2ccc(S(C)(=O)=O)cc2)n1-c1cccc(F)c1 [Example 42-II, 3-[2-(1-(3-Fluorophenyl)-2-methyl-5-(4-methylsulphonylphenyl)-1H-pyrrol-3-yl)ethoxy]propanol]
[2]
  IC50: 1500 nM
